Data reported in ChEMBL document CHEMBL5584358, “Fungal Coculture of Herpotrichia sp. and Trametes versicolor Induces Production of Diverse Metabolites with Anti-Parkinson's Neuroprotective Activity” (J Nat Prod, 2024).

Key:
Assay type in all cases: functional
PC-12 [1] = test: Neuroprotective activity against MPP+-induced rat PC12 cell death assessed as downregulation of Prorp gene expression at 1 to 10 uM preincubated for 1 hr followed by MPP+ addition and measured after 24 hrs by RNA sequencing analysis relative to control; settings: dose 1-10 µM; time 25 hrs
PC-12 [2] = test: Neuroprotective activity against MPP+-induced rat PC12 cell death assessed as cell viability at 20 uM preincubated for 1 hr followed by MPP+ addition and measured after 24 hrs by CCK-8 assay (reference value: 57%); settings: time 25 hrs, read-out: Activity
PC-12 [3] = test: Neuroprotective activity against MPP+-induced rat PC12 cell death assessed as downregulation of F8 gene expression at 1 to 10 uM preincubated for 1 hr followed by MPP+ addition and measured after 24 hrs by RNA sequencing analysis relative to control; settings: dose 1-10 µM; time 25 hrs
PC-12 [4] = test: Neuroprotective activity against MPP+-induced rat PC12 cell death assessed as downregulation of Dmpk gene expression at 1 to 10 uM preincubated for 1 hr followed by MPP+ addition and measured after 24 hrs by RNA sequencing analysis relative to control; settings: dose 1-10 µM; time 25 hrs
PC-12 [5] = test: Neuroprotective activity against MPP+-induced rat PC12 cell death assessed as downregulation of Tnfrsf10b gene expression at 1 to 10 uM preincubated for 1 hr followed by MPP+ addition and measured after 24 hrs by RNA sequencing analysis relative to control; settings: dose 1-10 µM; time 25 hrs
PC-12 [6] = test: Neuroprotective activity against MPP+-induced rat PC12 cell death assessed as upregulation of Rora gene expression at 1 to 10 uM preincubated for 1 hr followed by MPP+ addition and measured after 24 hrs by RNA sequencing analysis relative to control; settings: dose 1-10 µM; time 25 hrs
PC-12 [7] = test: Neuroprotective activity against MPP+-induced rat PC12 cell death assessed as upregulation of Insr gene expression at 1 to 10 uM preincubated for 1 hr followed by MPP+ addition and measured after 24 hrs by RNA sequencing analysis relative to control; settings: dose 1-10 µM; time 25 hrs
PC-12 [8] = test: Neuroprotective activity against MPP+-induced rat PC12 cell death assessed as downregulation of IL33 gene expression at 1 to 10 uM preincubated for 1 hr followed by MPP+ addition and measured after 24 hrs by RNA sequencing analysis relative to control; settings: dose 1-10 µM; time 25 hrs
PC-12 [9] = test: Neuroprotective activity against MPP+-induced rat PC12 cell death assessed as upregulation of Rph3a gene expression at 1 to 10 uM preincubated for 1 hr followed by MPP+ addition and measured after 24 hrs by RNA sequencing analysis relative to control; settings: dose 1-10 µM; time 25 hrs
PC-12 [10] = test: Neuroprotective activity against MPP+-induced rat PC12 cell death assessed as downregulation of Ifitm3 gene expression at 1 to 10 uM preincubated for 1 hr followed by MPP+ addition and measured after 24 hrs by RNA sequencing analysis relative to control; settings: dose 1-10 µM; time 25 hrs
PC-12 [11] = test: Neuroprotective activity against MPP+-induced rat PC12 cell death assessed as downregulation of Nlrp1a gene expression at 1 to 10 uM preincubated for 1 hr followed by MPP+ addition and measured after 24 hrs by RNA sequencing analysis relative to control; settings: dose 1-10 µM; time 25 hrs
PC-12 [12] = test: Neuroprotective activity against MPP+-induced rat PC12 cell death assessed as downregulation of Sesn2 gene expression at 1 to 10 uM preincubated for 1 hr followed by MPP+ addition and measured after 24 hrs by RNA sequencing analysis relative to control; settings: dose 1-10 µM; time 25 hrs
PC-12 [13] = test: Neuroprotective activity against MPP+-induced rat PC12 cell death assessed as downregulation of Cyp2b1 gene expression at 1 to 10 uM preincubated for 1 hr followed by MPP+ addition and measured after 24 hrs by RNA sequencing analysis relative to control; settings: dose 1-10 µM; time 25 hrs
PC-12 [14] = test: Neuroprotective activity against MPP+-induced rat PC12 cell death assessed as downregulation of Cntf gene expression at 1 to 10 uM preincubated for 1 hr followed by MPP+ addition and measured after 24 hrs by RNA sequencing analysis relative to control; settings: dose 1-10 µM; time 25 hrs
PC-12 [15] = test: Neuroprotective activity against MPP+-induced rat PC12 cell death assessed as upregulation of Rps27a gene expression at 1 to 10 uM preincubated for 1 hr followed by MPP+ addition and measured after 24 hrs by RNA sequencing analysis relative to control; settings: dose 1-10 µM; time 25 hrs
PC-12 [16] = test: Neuroprotective activity against MPP+-induced rat PC12 cell death assessed as downregulation of Ren gene expression at 1 to 10 uM preincubated for 1 hr followed by MPP+ addition and measured after 24 hrs by RNA sequencing analysis relative to control; settings: dose 1-10 µM; time 25 hrs
PC-12 [17] = test: Neuroprotective activity against MPP+-induced rat PC12 cell death assessed as upregulation of Ppial4d gene expression at 1 to 10 uM preincubated for 1 hr followed by MPP+ addition and measured after 24 hrs by RNA sequencing analysis relative to control; settings: dose 1-10 µM; time 25 hrs
PC-12 [18] = test: Neuroprotective activity against MPP+-induced rat PC12 cell death assessed as downregulation of Unc13d gene expression at 1 to 10 uM preincubated for 1 hr followed by MPP+ addition and measured after 24 hrs by RNA sequencing analysis relative to control; settings: dose 1-10 µM; time 25 hrs
PC-12 [19] = test: Neuroprotective activity against MPP+-induced rat PC12 cell death assessed as upregulation of Rab5al1 gene expression at 1 to 10 uM preincubated for 1 hr followed by MPP+ addition and measured after 24 hrs by RNA sequencing analysis relative to control; settings: dose 1-10 µM; time 25 hrs
PC-12 [20] = test: Neuroprotective activity against MPP+-induced rat PC12 cell death assessed as upregulation of Stat6 gene expression at 1 to 10 uM preincubated for 1 hr followed by MPP+ addition and measured after 24 hrs by RNA sequencing analysis relative to control; settings: dose 1-10 µM; time 25 hrs
PC-12 [21] = test: Neuroprotective activity against MPP+-induced rat PC12 cell death assessed as upregulation of Cyp2d4 gene expression at 1 to 10 uM preincubated for 1 hr followed by MPP+ addition and measured after 24 hrs by RNA sequencing analysis relative to control; settings: dose 1-10 µM; time 25 hrs
PC-12 [22] = test: Neuroprotective activity against MPP+-induced rat PC12 cell death assessed as upregulation of Mmp2 gene expression at 1 to 10 uM preincubated for 1 hr followed by MPP+ addition and measured after 24 hrs by RNA sequencing analysis relative to control; settings: dose 1-10 µM; time 25 hrs
PC-12 [23] = test: Neuroprotective activity against MPP+-induced rat PC12 cell death assessed as downregulation of Adora1 gene expression at 1 to 10 uM preincubated for 1 hr followed by MPP+ addition and measured after 24 hrs by RNA sequencing analysis relative to control; settings: dose 1-10 µM; time 25 hrs
PC-12 [24] = test: Neuroprotective activity against MPP+-induced rat PC12 cell death assessed as upregulation of Nat1 gene expression at 1 to 10 uM preincubated for 1 hr followed by MPP+ addition and measured after 24 hrs by RNA sequencing analysis relative to control; settings: dose 1-10 µM; time 25 hrs
PC-12 [25] = test: Neuroprotective activity against MPP+-induced rat PC12 cell death assessed as upregulation of Tnr gene expression at 1 to 10 uM preincubated for 1 hr followed by MPP+ addition and measured after 24 hrs by RNA sequencing analysis relative to control; settings: dose 1-10 µM; time 25 hrs
PC-12 [26] = test: Neuroprotective activity against MPP+-induced rat PC12 cell death assessed as upregulation of Mtr gene expression at 1 to 10 uM preincubated for 1 hr followed by MPP+ addition and measured after 24 hrs by RNA sequencing analysis relative to control; settings: dose 1-10 µM; time 25 hrs
PC-12 [27] = test: Neuroprotective activity against MPP+-induced rat PC12 cell death assessed as upregulation of Tars2 gene expression at 1 to 10 uM preincubated for 1 hr followed by MPP+ addition and measured after 24 hrs by RNA sequencing analysis relative to control; settings: dose 1-10 µM; time 25 hrs

## C=C1CC[C@H]2C(C)(C)[C@@H](O)C[C@@H](O)[C@]2(C)[C@H]1CO
PC-12 [1]
  log2FC: >0.4
PC-12 [2]
  viability at 20 µM: 71%
PC-12 [3]
  log2FC: >0.4
PC-12 [4]
  log2FC: >0.4
PC-12 [5]
  log2FC: >0.4
PC-12 [6]
  log2FC: >0.4
PC-12 [7]
  log2FC: >0.4
PC-12 [8]
  log2FC: >0.4
PC-12 [9]
  log2FC: >0.4
PC-12 [10]
  log2FC: >0.4
PC-12 [11]
  log2FC: >0.4
PC-12 [12]
  log2FC: >0.4
PC-12 [13]
  log2FC: >0.4
PC-12 [14]
  log2FC: >0.4
PC-12 [15]
  log2FC: >0.4
PC-12 [16]
  log2FC: >0.4
PC-12 [17]
  log2FC: >0.4
PC-12 [18]
  log2FC: >0.4
PC-12 [19]
  log2FC: >0.4
PC-12 [20]
  log2FC: >0.4
PC-12 [21]
  log2FC: >0.4
PC-12 [22]
  log2FC: >0.4
PC-12 [23]
  log2FC: >0.4
PC-12 [24]
  log2FC: >0.4
PC-12 [25]
  log2FC: >0.4
PC-12 [26]
  log2FC: >0.4
PC-12 [27]
  log2FC: >0.4
